What all share (assay): NCI anticancer screen, dose series, 48 h
Test [1] deals with UACC-62 melanoma.
Test [2] deals with SF-539 CNS.
Test [3] has as its system NCI-H226 lung.
For test [4], the system named is HCC-2998 colon.
Test [5] relates to M14 melanoma.
Test [6] concerns OVCAR-4 ovarian.
Test [7] deals with SNB-75 CNS.
For test [8], the system named is RPMI-8226 leukemia.
The test system of test [9] is MDA-MB-231 breast.
The subject of test [10] is BT-549 breast.

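These data come from cells grown in 96-well plates and exposed to compound for 48 hours at five concentrations. GI50 marks 50% less growth. TGI: concentration producing complete growth inhibition.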

Consider `COc1cc(Cc2cc(OC)c(OC)c(OC)c2)ccc1O`, for which the TGI is more than 100 µM in test [1]; 56.2 µM in test [2]; more than 100 µM in test [3]; more than 100 µM in test [4]; more than 100 µM in test [5]; more than 100 µM in [6]. For the same molecule, the values for the TGI in [7] and in test [8] were 28.6 µM and more than 100 µM, respectively.

On to `CSc1nc(NC2OC(COC(C)=O)C(OC(C)=O)C(OC(C)=O)C2OC(C)=O)c2c(OC(C)=O)c(C)c(=O)oc2n1` (stereo unspecified), for which the TGI in test [1], in [2], in test [3], in test [4], in [5] and in test [6] was more than 100 µM in each case. In addition, the TGI in test [7] and in test [8] was more than 100 µM in each case.

With `O=C1C2=C(CC3C(C2)C3(Br)Br)C(=O)C2=C1CC1C(C2)C1(Br)Br` (stereo unspecified), the TGI in test [1], in [2], in [3], in [4], in test [5] and in test [6] was more than 100 µM throughout. The TGI in test [7] was more than 100 µM.

In the case of `Cc1cccc(C(C)(C)C)c1NC(=O)CCc1n[nH]c(=S)o1`, the TGI was more than 100 µM in [1]; more than 100 µM in test [2]; 0.832 µM in test [3]; more than 100 µM in test [4]; more than 100 µM in test [5]; more than 100 µM in test [6]. For the same molecule, the TGI is more than 100 µM in [7] and 51.6 µM in test [8].

For the molecule `COC(=O)C(=O)C(C(=O)C(=O)Nc1ccc(C)cc1C)c1nc2ccccc2[nH]c1=O` (stereo unspecified), the TGI in test [1] is more than 100 µM; in test [2] it was 98.5 µM; in test [3] it was more than 100 µM; in test [4], more than 100 µM; in test [5], more than 100 µM; in test [6] it was more than 100 µM. The TGI is 69.2 µM in test [7] and more than 100 µM in test [8].

For `COc1ccc(C(=O)O)c(Cc2cccc3ccccc23)c1`, the TGI in [1], in test [3], in test [4], in [5], in test [6] and in test [7] was more than 100 µM each time.

On to `NC1C2(CCCCCC2)NC(=O)C12CCCCCC2` (stereo unspecified), for which the TGI in [1], in [2], in test [5], in test [6] and in test [7] was more than 100 µM in each case.

Regarding `CCC(C)(O)c1cn(-c2cccc(S(=O)(=O)O)c2)nn1` (stereo unspecified), the TGI in [1], in [2], in test [3], in [4], in [5] and in [6] was more than 100 µM in each case. Further, the TGI in test [7] and in test [8] was more than 100 µM throughout.

Take `N#Cc1cnsc1`: the TGI in test [1], in test [2], in test [3], in test [4], in test [5] and in test [6] was more than 100 µM each time. In addition, the TGI in test [7] and in test [8] was more than 100 µM each time.

As for `Nc1c(-c2ccc(Br)cc2)[n+]([O-])c2ccccc2[n+]1[O-]`, the TGI in [2] was more than 100 µM; in test [3] it was more than 100 µM; in [5] it was more than 100 µM; in test [6], more than 100 µM; in [7], more than 100 µM; in test [8], 78.3 µM.

Consider `NCCCNCCSSCCCCS(=O)O`, for which the TGI in test [1] was 34.8 µM; in test [2], more than 100 µM; in test [3], more than 100 µM; in test [4], more than 100 µM; in [5], 44.2 µM; in test [6], 28.2 µM. Also, the TGI in [7] and in test [8] was more than 100 µM each time.

Take `Cc1ccc(NC(=O)C2C(=O)N(c3ccc(C)c(C)c3)C(=O)/C2=N/O)cc1C` (stereo unspecified): the TGI in [1], in test [2], in test [3], in test [4], in test [5] and in test [7] was more than 100 µM each time. The TGI in test [8] was more than 100 µM.

`CC(C)(C)OC(=O)N(CCCN(CCn1c2c(c3ccccc3c1=O)C(=O)c1ccccc1-2)C(=O)OC(C)(C)C)CCn1c2c(c3ccccc3c1=O)C(=O)c1ccccc1-2`: the GI50 in [1], in [2], in test [3], in test [9], in test [5] and in test [10] was more than 50 µM throughout. Also, the GI50 is more than 50 µM in [6] and 7.21 µM in [8]. The TGI in [1], in test [2], in test [3], in test [9], in test [5] and in test [10] was more than 50 µM throughout. Besides, the TGI in test [6] was more than 50 µM; in test [8], 48.6 µM.

Regarding `CC(C)=[CH][Sb]([Br])([CH]=C(C)C)([CH]=C(C)C)[CH]=C(C)C`, the GI50 in test [1] was 11.1 µM; in test [4], 26 µM; in test [5], 10.1 µM; in test [6], 22.7 µM; in test [8], 0.781 µM. The TGI is more than 100 µM in [1]; more than 100 µM in test [4]; 37.8 µM in [5]; more than 100 µM in test [6]; 38.4 µM in test [8].

With `O=S(O)CCCCSSCCCCSSCCCCS(=O)O`, the TGI in test [1] is 55.3 µM; in [2], more than 100 µM; in [4] it was more than 100 µM; in test [5], 26.5 µM; in test [6], 33.9 µM; in test [7], more than 100 µM.

For the molecule `CCOC(=O)NC(=O)c1cn(CCCOC(=O)NCCCCCCNC(=O)OCCCn2c(=O)c(C(=O)NC(=O)OCC)cn(C)c2=O)c(=O)n(C)c1=O`, the TGI in test [1] was more than 100 µM; in [3], more than 100 µM; in test [4] it was more than 100 µM; in test [5] it was more than 100 µM; in test [6], more than 100 µM; in [7], 93.9 µM. In addition, in test [8], the TGI was more than 100 µM.

For the origin of these results see PubChem BioAssay (NCI).
